Laboratory results from patent publication US20250090502A1, “METHODS OF TREATING, AMELIORATING, AND/OR PREVENTING BACTERIAL INFECTION, OR METHODS OF REDUCING ADVERSE EFFECTS CAUSED BY BACTERIA” (Drexel University, priority 2023, published 2025).
“Also recorded” adds a separate entry of the source.

Experiments:
Haemophilus influenzae = assay: Susceptibility of planktonic and biofilm H. influenzae strains to kanamycin alone and in combination with HEJ14; format: cell-based
Excerpt: FIG. 3A: transformation frequency of wild type (Rd) Haemophilus influenzae versus ΔRelA Rd; FIG. 3B: transformation frequency of Rd versus ΔRelA/ΔSpot Rd; FIG. 3C: planktonic treatments: no treatment (left); kanamycin treatment (middle); HEJ14+kanamycin treatment (right). Left=WT Rd; middle=ΔRelA Rd and right=ΔRelA/ΔSpot Rd. FIG. 3D: biofilm treatments: no treatment (left); kanamycin treatment (middle); HEJ14+kanamycin treatment (right). Left=WT Rd; middle=ΔRelA Rd and right=ΔRelA/ΔSpot Rd.
To study the effects of HEJ14, including the risk of resistance mutations arising, the present study constructed single gene knockouts of RelA, SpoT, and MsfI (a gene that provides for survival in phagolysosomes) as well as a double RelA/SpoT knockout in the Gram-negative bacteria Haemophilus influenzae using an overlap PCR mutagenesis strategy.
The present study then evaluated the susceptibility of both planktonic (FIG. 3C) and biofilm cells (FIG. 3D) of WT, ΔRelA and the ΔRelA/ΔSpot H. influenzae strains to kanamycin (kan) alone and in combination with HEJ14. In all cases there was a 2-3 log increase in killing by the combo treatment confirming our initial premise that RelA inhibition would potentiate standard antibiotics.

P. aeruginosa [1] = assay: Pyocyanin toxin production by P. aeruginosa cultures; format: cell-based; conditions: P. aeruginosa culture, single agent
Excerpt: FIG. 4 illustrates certain aspects of the effect of HEJ14 on pyocyanin toxin production by the Gram-negative bacteria P. aeruginosa, in accordance with some embodiments. […] The bar chart illustrates the effect of HEJ14 on pyocyanin by P. aeruginosa at various HEJ14 concentrations.
Unexpectedly, the present study discovered that some of the hit compounds, as single agents, inhibited pyocyanin toxin production (FIG. 4) in the Gram-negative pathogen P. aeruginosa at higher specific activities (nanomolar) than required for RelA inhibition. Thus, the present study pursued a bipartite strategy of developing the compounds to treat biofilms, and to “convert” pathogens to commensals.

P. aeruginosa [2] = assay: Wax worm model: larvae injected with supernatant of P. aeruginosa cultures grown with HEJ14; format: in vivo; conditions: larvae injected with supernatant of cultures treated with HEJ14 during growth vs untreated culture supernatants
Protocol: (§1) FIG. 5A: HEJ14 reduced toxin production of P. aeruginosa. The label “DMSO 48 h” above the dish indicate that the larvae were injected with supernatant of P. aeruginosa culture grown with DMSO carrier only. […] Kaplan Meier Plot showing increased survival of wax worms receiving supernatant from HEJ14 treated P. aeruginosa culture. FIG. 5B: HEJ14 protected wax worm larvae from the lethality caused by P. aeruginosa infection. In FIG. 5B, larvae were injected with either live P. aeruginosa (10^5 CFU) and HEJ14, or the live bacteria and DMSO carrier only. Right dish: Larvae were injected with live P. aeruginosa (10^5 CFU) & 50 μM HEJ14. The Kaplan Meier Plot showing increased survival of wax worms receiving HEJ14 treated P. aeruginosa.
(§2) Similarly, HEJ14 protected the larvae for 48 hours when live P. aeruginosa were injected simultaneously with a single bolus of HEJ14 (FIG. 5B).

P. aeruginosa [3] = assay: Wax worm model: larvae injected with live P. aeruginosa and HEJ14; format: in vivo; conditions: 48 hours post-injection; live P. aeruginosa (10^5 CFU) injected simultaneously with single bolus of 50 μM HEJ14
Protocol: as §1, §2

Staphylococcus aureus = assay: S. aureus in vitro growth kinetics (OD600); format: cell-based; conditions: stationary phase; HEJ14 125-500 μM, 24 hours
Protocol: (§3) Cultures of a S. aureus expressing an agr-GFP reporter were incubated with vehicle (0 μM) or various concentrations of HEJ14 ([…], 250 μM, and 500 μM). The bacterial growth (OD600) and GFP signal intensity (RFU) were measured for a duration of 24 hours at 20-minute intervals. FIG. 6A: Bacterial growth (OD600).
The present study further discovered that the bacterial anti-virulence effects of HEJ14 works on the Gram-positive pathogens, as well. To determine if HEJ14 has an effect on the Gram-positive bacteria Staphylococcus aureus, the present study performed in vitro growth kinetics assays testing various HEJ14 concentrations and measuring OD600 over time.

agr = assay: S. aureus agr-GFP reporter expression; format: cell-based, Staphylococcus aureus; conditions: stationary phase; HEJ14 125, 250, 500 μM
Protocol: as §3
FIG. 6B: agr expression as measured by GFP signal intensity (RFU) normalized to OD600.
Since the stringent response in S. aureus induces PSMα production and agr activity is essential for psm expression, the present study used an S. aureus agr reporter strain to elucidate the effect of RelA inhibition on agr expression.

S. aureus = assay: Hemolytic activity of S. aureus culture supernatants on sheep's blood agar; format: cell-based, Staphylococcus aureus; conditions: S. aureus cultures incubated with HEJ14 (125 μM) for 24 hrs vs vehicle
Protocol: S. aureus broth cultures were incubated with vehicle or HEJ14 (125 μM) for 24 hrs. The supernatants were filter sterilized (0.2 μm) and 5 μL plated in serial dilutions on 5% sheep's blood agar, starting with V1 (vehicle treated plate) and R1 (HEJ14 treated plate).

[4] = tested on: methicillin-resistant S. aureus (MRSA) (strain USA300 LAC::lux); assay: Mouse model of S. aureus intradermal infection (MRSA USA300 LAC::lux); format: in vivo, mice; conditions: single dose of 125 μM or 250 μM HEJ14 at time of infection, day 3, vs vehicle, dose-dependent
Protocol: The dorsal skin surfaces of anesthetized mice were shaved; a 100 μL volume of 3×10^7 CFU of methicillin-resistant S. aureus (MRSA) (strain USA300 LAC::lux) was injected intradermally with, from left to right, vehicle, 125 μM of HEJ14, or 250 μM of HEJ14. FIG. 8A: Digital photographs of dorsal lesions. FIG. 8B: Digital bioluminescent signals of S. aureus. FIG. 8C: images from FIG. 8A were analyzed using Image J to obtain total lesion areas. FIG. 8D Images from FIG. 8B were analyzed by Image J to determine bacterial burden based on photon count.
To investigate the efficacy of a RelA inhibitor against in vivo bacterial infections, the present study employed an established mouse model of S. aureus intradermal infection with the community-associated methicillin-resistant S. aureus infections (CA-MRSA) bioluminescent strain USA300 LAC::lux (Marchitto et al., Proc Natl Acad Sci USA 2019; 116:10917-26; Alphonse et al., Sci Transl Med 2021; 13.; Wang et al., Nat Med 2007; 13:1510-4.; Dong et al., Immunity 2022; 55:1645-62.e7).

Escherichia coli C = assay: E. coli C aggregation under stress conditions; format: cell-based; conditions: high salt, low temperature and amino acid starvation
Excerpt: Bottom panels: Micrographs of the aggregates (or the lack thereof in the case of HEJ14 treated sample).
E. coli C, when under certain stress conditions, aggregates together and forms highly robust biofilms from a planktonic culture. It was hypothesized that inhibition of RelA would limit aggregation of E. coli C.

O=C(O)Cn1cc(C[C@H]2NC(=O)NC2=O)nn1 [HEJ14, (R)-2-(4-((2,5-dioxoimidazolidin-4-yl)methyl)-1H-1,2,3-triazol-1-yl)acetic acid]
increase in killing by the combo treatment (Haemophilus influenzae; HEJ14 in combination with kanamycin vs kanamycin alone, planktonic and biofilm cells of WT, ΔRelA and ΔRelA/ΔSpot H. influenzae): 2-3 log
planktonic and biofilm H. influenzae growth (Haemophilus influenzae; even in ΔRelA strains): able to inhibit planktonic and biofilm H. influenzae growth
pyocyanin toxin production (P. aeruginosa [1]): decreased pyocyanin production
P. aeruginosa virulence in the wax worm model (P. aeruginosa [2]): significantly reduced P. aeruginosa virulence
larvae survived (P. aeruginosa [3]): 95%
bacterial growth (OD600) (Staphylococcus aureus): enhanced bacterial growth during the stationary phase
agr expression (GFP signal normalized to OD600) (agr): dose-dependent decrease in agr expression
hemolytic effect of culture supernatants on blood agar plates (S. aureus): reduced hemolytic effect
bioluminescence (in vivo bacterial burden) [4]: significantly decreased
lesion size [4]: significantly decreased
E. coli C aggregation (Escherichia coli C): completely absent; also recorded: reduced the amount of E. coli C aggregation
